Reference: patent US10441560B2, “Compositions and methods for treating non-alcoholic steatohepatitis” (priority 2013, dated 2019)

Columns and labels:
[1] = system: CYP450; details: at free concentrations observed in humans; previous studies; cited from earlier work
[2] = system: NASH; test: Phase II double blind, placebo-controlled clinical trial of EPA-E in subjects with NASH; format: in vivo, human
From the text: This example provides the protocol used for an ongoing phase II clinical trial, double blind, placebo-controlled study to investigate the safety, efficacy, and pharmacokinetic profile of two doses of EPA-E in subjects with NASH. Up to 70 subjects were enrolled into each treatment arm, for a total of 210 subjects to be enrolled. Block randomization using an interactive voice response system (IVRS) was used to assign patients in a 1:1:1 ratio to two active doses and placebo. Patients were stratified at randomization by presence or absence of diabetes. Patients with diabetes comprised no more than 25% of the total number of patients enrolled. […] Subjects were required to have a liver biopsy with proven NASH in the 6 month period prior to screening. The Pharmacokinetic profile for EPA-E was evaluated in a subgroup of subjects in specified sites. Subjects were approached prior to providing informed consent to determine if they will participate in the PK group subset. Approximately 36 subjects participated in the PK subset evaluation (12 from each treatment arm, to include 6 males and 6 females). Overall study duration plan was 2 years. In order to support the trial, EPA-E capsules and matching placebo capsules were prepared. EPA-E capsule is an oval soft gelatin capsule containing 300 mg of EPA-E as an active ingredient. […] These capsules are unidentifiable as EPA-E capsules or placebo capsules. Subjects were administered orally 3 capsules 3 times daily, immediately after meals. Subjects were potentially included into the study if they met all the following criteria: • 1. Diagnosis of definite NASH by the central reading pathologists: • Liver biopsy slides will be submitted for evaluation by the central pathologists according to one of the following criteria: • a. Previous liver biopsies must have been obtained within 6 months prior to informed consent and should be judged by the local pathologist as showing NAS ≥4 with a minimum score of 1 each for steatosis and lobular inflammation plus […] ballooning OR at least 1a sinusoidal fibrosis AND a finding of possible or definite steatohepatitis • b. For liver biopsies performed after informed consent is obtained, all slides will be submitted for reading by the central pathologists in conformity with the independent pathology review charter (IPRC) • 2. Patients of either gender greater than 18 years of age • 3. Patients with diabetes that have been on stable doses of anti-diabetic agents since at least 6 months prior to liver biopsy may be enrolled • 4. Females must be of non-child bearing potential (surgically sterilized or at least two years post-menopausal) or if of child-bearing potential, must have a negative pregnancy test at screening and agree to use an effective form of contraception during the study and for at least 30 days following the last dose of study medication • 5. Normal ECG or clinically non-significant findings at the Screening and Baseline visits • 6. No significant concomitant medical illness, without any clinically significant physical exam findings and without any clinically significant laboratory findings, as determined by the principal investigator • 7. […] Inability or unwillingness to have a liver biopsy • 2. Diagnosis of cirrhosis by central pathology reviewers • 3. Previous bariatric surgery or biliary diversion (i.e. gastric bypass), esophageal banding and gastric banding • 4. Serum ALT>300 U/L • 5. Subject has used drugs associated with steatohepatitis within 6 months prior to screening (corticosteroids, high dose estrogens, methotrexate, amiodarone, anti-HIV drugs, tamoxifen, diltiazem) • 6. Use of the following anti-NASH agents for more than a 2 week period in the 3 months prior to liver biopsy or the 3 months prior to screening: • a. Vitamin E>60 IU per day • b. Omega-3-acid ethyl esters or omega-3-PUFA-containing supplements >200 mg per day • c. Thiazoledinediones (e.g. pioglitazone) • 7. […]

[3] = system: galactosamine-induced steatohepatitis mouse model; test: Galactosamine-induced steatohepatitis mouse model; format: in vivo; details: oral administration at 1000 mg/kg
[4] = system: methionine-choline deficient diet rat model of nonalcoholic steatohepatitis; test: Methionine-choline deficient diet rat model of nonalcoholic steatohepatitis; format: in vivo; details: repeat oral administration at 1000 mg/kg
[5] = parameters: species or system dogs; details: dog, in vivo, po, 30 mg/kg, 1 week
Procedure: (§1) Consequently, when EPA-E is administered orally to humans, it would appear that it is well absorbed, even though the unchanged ethyl ester form is not detected, and the free form (EPA) is only detected at a very low level, in the blood. Due to this absorption mechanism of essential fatty acids, the administered EPA-E exists as a blood-constituent fatty acid in the total lipids. In fact, according to the approval package document of Lovaza®, the free form of EPA is undetectable in the circulation (<1 μM) following an oral dose of 4 g of Omacor® (a mixture of the ethyl esters of EPA and DHA) Following oral administration of EPA-E, EPA, DPA and DHA were isolated and identified as metabolites in tissues and plasma. EPA, DPA and DHA were incorporated into TG and PL. Radioactivity was primarily excreted in expired air (44%) after single oral administration at 30 mg/kg EPA-E with minimal excretion in bile and urine (˜3%) and approximately 20% excreted in feces.

[6] = system: pylorus-ligated rats; test: Gastric fluid levels in pylorus-ligated rats; format: in vivo; details: 3000 mg/kg oral dose
[7] = system: central nervous, autonomic nervous, respiratory and cardiovascular systems; test: Safety pharmacology studies; format: in vivo; details: oral doses up to 3000 mg/kg
[8] = Absorption, distribution and metabolites after oral 14C-EPA-E in rats; format: in vivo
Procedure: (§2) After administration of ^14C-EPA-E into the ligated intestine of rats, the residual radioactivity in the intestine at 24 hours was only 4.6% of the administered dose. Radioactivity transferred to the plasma and lymph was mainly detected in the triglyceride (TG) fraction in the early phase after dosing, while distribution to the free fatty acid (FFA) fraction was slight at all timepoints. […] Orally administered EPA-E was primarily incorporated in adrenal gland lipids as cholesterol esters of the fatty acids eicosapentaenoic acid (EPA), docosapentaenoic acid (DPA) and docosahexaenoic acid (DHA).
After oral administration of ^14C-EPA-E to the rat, EPA, DPA and DHA were detected as metabolites in the total lipid fraction of the plasma and tissues (liver, fat, heart and brain). […] In the total lipid fraction of the liver, the radioactivity originated mainly from EPA, DPA and DHA. Thus, it is considered that EPA, DPA and DHA are the predominant metabolites of ^14C-EPA-E in tissues, as constituent fatty acids of the total lipid fraction.

[9] = Excretion of radioactivity after single oral administration (rat); format: in vivo, rats
Procedure: EPADEL is a product containing ethyl all-cis-5,8,11,14,17-eicosapentaenoate (EPA-E), one of the n−3 essential fatty acids. The preclinical absorption, distribution, metabolism and excretion (ADME) characteristics of EPA-E have been determined primarily in rats.
as §1
Renal excretion was the elimination route for several minor highly polar metabolites (<0.4%), but EPA-E, EPA, DPA or DHA were not detected in the urine. In feces, EPA-E and EPA, evidently derived from the unabsorbed drug, were detected; however, no DPA or DHA was detected in the feces.

[10] = system: diet-induced hepatic steatosis model; test: Mouse diet-induced hepatic steatosis model; format: in vivo; details: repeat oral administration at ≥0.1 mg/g
[11] = system: arteries; test: Preservation of elasticity of arteries; format: in vivo; details: rabbits
[12] = Lipid lowering in animal studies; format: in vivo; details: rats, hamsters and rabbits
[13] = system: ligated intestine; test: Administration of 14C-EPA-E into the ligated intestine of rats; format: in vivo; details: at 24 hours
Procedure: as §2

[14] = Hydrolysis in rat small intestine homogenates, lymph, plasma and liver homogenates; format: in vitro ADME
[15] = single oral administration at 30 mg/kg

CC/C=C\C/C=C\C/C=C\C/C=C\C/C=C\CCCC(=O)O [EPA, Eicosapentaenoic acid]
CYP450 inhibition [1]: unlikely to inhibit CYP450

CC/C=C\C/C=C\C/C=C\C/C=C\C/C=C\CCCC(=O)OCC [EPA-E, ethyl all-cis-5,8,11,14,17-eicosapentaenoate]
response rate ([2]; fasting glucose =<125 mg/dL and HbA1c =<6.4, Study arm 1, FIG. 4): higher response to rate
efficacy (responders) ([2]; fasting glucose =<125 mg/dL and HbA1c =<6.4, Study arm 2): equivalent to that of Study arm 1
NASH response (change of NAS score) ([2]; patients with GGT levels =<33 IU/L, Study arm 1 and 2, FIG. 9, preliminary): higher efficacy
efficacy (preliminary endpoint achievement rate v. GGT) ([2]; patients with GGT levels =<60 IU/L, Study arm 1 and 2, FIG. 8, preliminary): higher efficacy
improvement of serum EPA/AA ratio on Day 365 ([2]; patients with GGT ≤33 IU/L, Study arm 2, FIG. 10, preliminary): higher efficacy
serum EPA/AA ratio over time ([2]; patients with GGT ≤33 IU/L, Study arm 2, FIG. 12): significant increase
efficacy (responders) ([2]; patients with HbA1c levels =<6.4, Study arm 1, FIG. 2, preliminary): higher efficacy
efficacy (responders) ([2]; patients with HbA1c levels =<6.4, Study arm 2, preliminary): equivalent to that of Study arm 1
efficacy (responders) ([2]; patients with fasting glucose =<125 mg/dL, Study arm 1, FIG. 3, preliminary): higher efficacy
efficacy (responders) ([2]; patients with fasting glucose =<125 mg/dL, Study arm 2, preliminary): equivalent to that of Study arm 1
efficacy (responders) ([2]; patients without biliary tract disease markers (GGT ≤33 IU/L), Study arm 1 (600 mg TID) and Study arm 2 (900 mg TID), FIG. 7, preliminary): higher efficacy
efficacy (responders: NAS Score ≤3 or improvement of ≥2 across at least 2 of NAS components) ([2]; patients without diabetes or with mild diabetes compared to diabetic patients, Study arm 1 (600 mg EPA-E, TID), FIG. 1, preliminary): higher efficacy
efficacy (responders: NAS Score ≤3 or improvement of ≥2 across at least 2 of NAS components) ([2]; patients without diabetes or with mild diabetes, Study arm 2 (900 mg EPA-E, TID), preliminary): equivalent to that of Study arm 1
progression of steatohepatitis [3]: retarded progression of steatohepatitis
triglyceride (TG) accumulation [3]: suppressing triglyceride (TG) accumulation
fibrosis [4]: inhibited fibrosis
inflammation and oxidative stress [4]: suppressing inflammation and oxidative stress
radioactivity excreted in the urine [5]: 1.0%
radioactivity recovered in the feces [5]: 19.2%
gastric fluid levels [6]: reduction in gastric fluid levels
effect on the central nervous, autonomic nervous, respiratory and cardiovascular systems [7]: no effect
absorption ([8]; single oral dose 30-1000 mg/kg, rats): well-absorbed
radioactivity excreted in expired air ([9]; rat, in vivo, po, 30 mg/kg): 44%
radioactivity excreted in bile and urine [9, 15]: ~3%
radioactivity excreted in feces [9, 15]: approximately 20%
EPA-E in the urine ([9]; urine): not detected
fat accumulation [10]: suppressed fat accumulation
hepatic SREBP-1c levels [10]: suppressing hepatic SREBP-1c levels
monounsaturated fatty acid (MUFA) synthesis by SCD1 [10]: suppressing
elasticity of arteries [11]: preserve the elasticity of arteries
lipids [12]: lower lipids

CC/C=C\C/C=C\C/C=C\C/C=C\C/C=C\CCCC(=O)OCC [^14C-EPA-E]
residual radioactivity in the intestine [13]: 4.6 % of the administered dose
hydrolysis [14]: hydrolyzed rapidly
unchanged EPA-E in the plasma or tissues ([8]; rat, oral administration, plasma, liver, fat, heart and brain): no unchanged EPA-E was found
distribution of radioactivity in body tissues ([8]; rats, oral 14C-EPA-E): widely distributed in the body tissues
